Literature values in patent US20240139293A1, “Compositions and Methods for Enhancing Anti-Viral Therapies” (XORTX THERAPEUTICS, INC., priority 2021, published 2024).

Tested on: SARS-CoV-2
Settings: cited study: SARS-CoV-2 replication in vivo and in vitro

## CCCN(CCC)S(=O)(=O)c1ccc(C(=O)O)cc1 [probenecid]
  viral load due to Coronavirus: can decrease viral load
